In patent US9056923B2, “Mimetic peptides derived from collagen type IV and their use for treating angiogenesis- and lymphagiogenesis-dependent diseases” (THE JOHNS HOPKINS UNIVERSITY, priority 2010, dated 2015):
“Also recorded” adds a separate entry of the source. Square brackets hold non-standard residues; d marks the D form. Ends that are not written are not given here. Peptide text beside a SMILES is read from it. Nle = CCCC[C@H](N)C(=O)O; Abu = CC[C@H](N)C(=O)O

How the values were obtained:
Assay type in all cases: cell-based, human
[1] = test system: HUVEC; assay: HUVEC migration assay (RT-CIM); details: for Activity in Migration: Yes/No summary, active = inhibitory potential greater than 30%; for migration inhibition / inhibition of migration: concentration not given; for Migration Inhibition (50 uM): 50 uM peptide; for Migration Inhibition (5 uM): 5 uM peptide
Procedure: The inhibitory potential of the peptides was measured using a real time migration assay system based on electrical impedance (RT-CIM, ACEA Biosciences, CA). CIM 16 well plates (Roche, 05665817001) are composed of a top and bottom chamber separated by a microporous (8 μm) polycarbonate membrane. The membrane was coated with fibronectin (20 μg/mL), and 45,000 cells/well in serum free media with or without peptides were added to the top compartment. Media with chemoattractant (i.e., fully supplemented EBM-2) was added to the bottom compartment of the chamber and the plate was incubated at 37° C. for 20 hours. The sensors integrated on the bottom side of the membrane monitor and continuously record changes in impedance as the cells move through the membrane. The RT-CIM technology allows for easy quantification of cell migration by monitoring the cell index derived from the measured impedances. Assays were performed in at least two independent replicates and each replicate was performed using two experimental duplicates.

[2] = test system: HUVEC; details: for inhibition of proliferation / Activity in Proliferation / Proliferation Inhibition (IC50 in uM): HUVEC; for Activity in Proliferation: Yes/No summary; for Proliferation Inhibition (IC50 in uM): summary tables 2-4, 6, 7
Procedure: Several assays were used to test the peptides discussed in the Examples herein. A colorimetric based proliferation assay using WST-1 (Roche, 11644807001) proliferation reagent was carried out using HUVEC cells. 2000 cells/well were plated in 96-well plates and allowed to adhere overnight. On the following day, the media was exchanged with fully supplemented media containing peptides or equivalent DMSO vehicle for the controls. Three days later the media containing the peptides was replaced with serum-free EBM-2 media containing WST-1 reagent and the plates were incubated for four hours as per the manufacturer's recommendations. Changes in color, due to the formazan dye resulted from the cleavage of the tetrazolium salt WST-1 by the mitochondrial succinate-tetrazolium reductase, were read on a Victor V fluorescence plate reader (Perkin Elmer, MA) by measuring the absorbance at 450 nm Dose response curves of percent live cells (in comparison to untreated cells but incubated in complete media with 0.2% DMSO) were created. Assays were performed in at least two independent replicates and each replicate was performed using three experimental triplicates.

[3] = test system: HUVEC; details: HUVEC; for Activity in Adhesion: Yes/No summary, active = inhibitory potential greater than 30%; for Adhesion Inhibition (100 uM): 100 uM peptide
Procedure: Similar to the migration assays, the inhibition activity of the peptide in cellular adhesion was assessed using the RT-CIM technology. In this case, 25,000 cells/well were plated in 16 wells E-plates (Roche, Basel Switzerland) in the presence or absence of the peptide. The adhesion was monitored over time (3 hours) by measuring changes in the electrical impedance, which is a direct measure of the cells adhering on the electrodes. […] Assays were performed in at least two independent replicates and each replicate was performed using two experimental duplicates.

[4] = test system: HUVEC; assay: HUVEC tube formation assay on Matrigel; details: for Tube formation Inhibition (100 uM): 100 uM peptide; for Activity in Tube formation: Yes/No summary; for inhibition of tube formation: concentration not given; for inhibition of tube formation (FIG. 20): high dose, 100 nM
Procedure: The compounds also were tested for their ability to inhibit tube formation, a process critical in angiogenesis. Endothelial cells spontaneously form a network of tubes when plated on extracts of extracellular matrix. This in vitro assay combines aspects of adhesion and migration and it is routinely used in angiogenesis research (Oliveira-Ferrer et al., 2008). The ability to inhibit tube formation is a comprehensive assessment of the anti-angiogenic potential. The protocol was described by Arnaoutova et al. (2009) and it consists of plating HUVEC on top of basement membrane extract and after incubation at 37° C. the cells naturally rearrange themselves in a network of tubes. Thus, 50 μL/well of Matrigel (BD Biosciences, San Jose, Calif.) was plated in a cold 96 well plate and incubated at 37° C. for 30 min for polymerization. 15,000 cells/well were added to the top of the gel and incubated in complete media in the presence or absence of peptide for 19 hours. Images were captured using the CCD Sensicam mounted on a Nikon microscope (Eclipse T-100). Assays were performed in at least two independent replicates and each replicate was performed using three experimental replicates and one image of a randomly chosen field was acquired per well.

Compound | Activity in Migration [1] | migration inhibition [1] [%] | inhibition of proliferation [2] | Activity in Proliferation [2] | inhibition of adhesion at 50 μM ([3]; 50 μM peptide) | Activity in Adhesion [3] | Tube formation Inhibition (100 uM) [4] | Activity in Tube formation [4] | inhibition of tube formation [4] | inhibition of tube formation (FIG. 20) [4] | Migration Inhibition (50 uM) [1] | inhibition of migration [1] | IC50 [2] [µM] | Proliferation Inhibition (IC50 in uM) [2] | Adhesion Inhibition (100 uM) [3] [%] | inhibition of adhesion ([3]; concentration not given) | adhesion inhibition (FIG. 16) ([3]; concentration not given) | Migration Inhibition (5 uM) [1] [%]
CC[C@H](NC(=O)[C@H](Cc1ccccc1)NC(=O)[C@H](CCSC)NC(=O)[C@H](Cc1ccccc1)NC(=O)[C@@H]1CCCN1C(=O)[C@H](CCSC)NC(=O)[C@@H](NC(=O)[C@H](CO)NC(=O)[C@H](Cc1ccccc1)NC(=O)[C@H](CCCNC(=N)N)NC(=O)[C@H](CCCNC(=N)N)NC(=O)[C@@H](N)CC(C)C)[C@@H](C)O)C(=O)N[C@@H](CC(N)=O)C(=O)N[C@H](C(=O)N[C@@H](CC(N)=O)C(=O)N[C@H](C(=O)O)C(C)C)[C@@H](C)CC [SP2006, LRRFSTMPFMFAbuNINV] (H-LRRFSTMPFMF[Abu]NINV-OH; N-terminus and C-terminus assumed) | No | 18 | did not inhibit proliferation | No | inhibition of adhesion | Yes | Complete | Yes | Inhibition of tube formation | active at inhibiting tube formation |  |  |  |  |  |  |  | 
CCCC[C@H](NC(=O)[C@H](Cc1ccccc1)NC(=O)[C@@H]1CCCN1C(=O)[C@H](CCCC)NC(=O)[C@@H](NC(=O)[C@H](CO)NC(=O)[C@H](Cc1ccccc1)NC(=O)[C@H](CCCNC(=N)N)NC(=O)[C@H](CCCNC(=N)N)NC(=O)[C@@H](N)CC(C)C)[C@@H](C)O)C(=O)N[C@@H](Cc1ccccc1)C(=O)O [SP2014, LRRFSTNlePFNleF-OH] (H-LRRFST[Nle]PF[Nle]F-OH; N-terminus assumed) | No |  |  | No |  | No | Inactive | No |  |  | Inactive | absence of activity | > 100 | Inactive | 2.9 | absence of activity |  | 
FTNINNVTN-NH2 [SP2031, FTNINNVTN] | Yes | > 50 | restored activity | Yes |  | Yes | Active | Yes |  |  | 10.21% |  |  |  | 85 |  | > 80 | 
LRRFSTMP-NH2 [SP2008] | No |  |  | No |  | No | Inactive | No |  |  | Inactive | absence of activity |  | Inactive | −0.1 | absence of activity |  | 
CC[C@H](NC(=O)[C@H](Cc1ccccc1)NC(=O)[C@H](CCSC)NC(=O)[C@@H](N)Cc1ccccc1)C(=O)N[C@@H](CC(N)=O)C(=O)N[C@H](C(=O)N[C@@H](CC(N)=O)C(=O)N[C@@H](CC(N)=O)C(=O)N[C@H](C(=O)N[C@@H](CC)C(=O)N[C@@H](CC(N)=O)C(=O)N[C@@H](Cc1ccccc1)C(=O)O)C(C)C)[C@@H](C)CC [SP2010, FMFAbuNINNVAbuNF] (H-FMF[Abu]NINNV[Abu]NF-OH; N-terminus and C-terminus assumed) | No |  |  | No |  | Yes | complete inhibition of tube formation | Yes |  | displayed activity in inhibiting tube formation | 13% |  | 155 |  | 82.69 |  |  | 
CC[C@H](NC(=O)[C@H](Cc1ccccc1)NC(=O)[C@H](CCSC)NC(=O)[C@H](Cc1ccccc1)NC(=O)[C@@H]1CCCN1C(=O)[C@H](CCSC)NC(=O)[C@@H](NC(=O)[C@H](CO)NC(=O)[C@H](Cc1ccccc1)NC(=O)[C@H](CCCNC(=N)N)NC(=O)[C@H](CCCNC(=N)N)NC(=O)[C@@H](N)CC(C)C)[C@@H](C)O)C(=O)N[C@@H](CC(N)=O)C(=O)N[C@H](C(=O)N[C@@H](CC(N)=O)C(=O)N[C@@H](CC(N)=O)C(N)=O)[C@@H](C)CC [SP2028, LRRFSTMPFMFAbuNINN] (H-LRRFSTMPFMF[Abu]NINN-NH2; N-terminus assumed) | Yes |  |  | Yes |  | Yes | Complete | Yes | Inhibition of tube formation |  | 48.87% |  |  |  | 96.8 |  |  | 
NINNVAbuNF (NINNVXNF; Abu non-natural residue; Artificial sequence based on the human Collagen Type IV protein) [SP2009] | Yes |  |  | No |  | No | Partial | Yes |  | displayed activity in inhibiting tube formation | 55% | inhibitory activity; also recorded: active in migration |  | Inactive | 0 |  |  | 
LNRFSTMPF [SP2013, LNRFSTMPF] | No |  |  | No |  | No | Inactive | No |  |  | Inactive | absence of activity | > 100 | Inactive | 0.3 | absence of activity |  | 
LRRFSTMPFMFANINNVANF-NH2 [SP2023] | Yes |  |  | Yes |  | Yes | Complete | Yes |  |  |  |  |  |  | 96.29 |  |  | 31.18
CC[C@H](NC(=O)[C@H](Cc1ccccc1)NC(=O)[C@H](CCSC)NC(=O)[C@H](Cc1ccccc1)NC(=O)[C@@H]1CCCN1C(=O)[C@H](CCSC)NC(=O)[C@@H](NC(=O)[C@H](CO)NC(=O)[C@H](Cc1ccccc1)NC(=O)[C@H](CCCNC(=N)N)NC(=O)[C@H](CCCNC(=N)N)NC(=O)[C@@H](N)CC(C)C)[C@@H](C)O)C(N)=O [SP2007, LRRFSTMPFMFAbu] (H-LRRFSTMPFMF[Abu]-NH2; N-terminus assumed) | No |  |  | No |  | No | Inactive | No |  |  | Inactive | absence of activity |  | Inactive | 11 | absence of activity |  | 
LRRFSTMPFMFTNINNVTNF-NH2 [SP2025] | Yes |  | not affected | Yes |  | Yes | Complete | Yes |  |  |  |  |  |  | 96.48 |  |  | 18.19
